Reference: patent US11420976B2 (priority 2020, dated 2022)
pEC50: −log10 of the molar value. Read-outs that look alike come from different tables or passages of the source.

How the values were obtained:
[1] = tested on: rHMPV-GFP (recombinant HMPV CAN97-83, MPV-GFP1); test: HMPV antiviral assay (eGFP fluorescence in Vero E6 cells); format: cell-based; conditions: read-out: rHMPV-GFP EC50
Description: HMPV antiviral activity was evaluated using a recombinant version of HMPV CAN97-83 engineered to contain the coding sequence for enhanced green fluorescence protein (eGFP) in the 3′ end of the virus genome (MPV-GFP1, ViraTree). Vero E6 cells (ATCC #CCL-7) were seeded at a density of 12,000 cells/100 μL/well into 96-well cell plates (VENDOR) one day prior to the assay. On the day of screening, the cell culture medium was aspirated from the wells and cells were washed twice with serum-free Eagle's Modified Essential Medium (EMEM, ATCC #) containing 1% penicillin-streptomycin (Invitrogen) (SF-EMEM). Cell washes were performed by dispensing 100 μL SF-EMEM per well and immediately aspirating the wash medium from the well. Following the second wash step, serum-free OptiMEM (Invitrogen, Cat No.) (SF-OptiMEM) containing 0.5 μg/mL TPCK-Trypsin (VENDOR) and 1% penicillin-streptomycin was added to the cells at 50 μL/well. Compounds were added into the 96-well plates using a JANUS automated liquid handling system (VENDOR). Compounds were initially diluted 1:50 into an intermediate 96-well plate containing SF-OptiMEM prior to transfer to the assay plate (25 μL/well). Each of the test compounds was tested in duplicate wells at final concentrations starting from 8 μM or 2 μM using ½ stepwise dilutions for a total of 8 points. Virus infection was performed by preparing a working stock of MPV-GFP1 at a multiplicity of infection (MOI) equal to 0.05/25 μL and aliquoting 25 μL of virus inoculum to the compound and positive control wells. SF-OptiMEM was added (25 μL/well) to the appropriate wells to serve as a virus-free negative control for the assay. The final DMSO concentration of all wells is 0.5%. Plates were incubated at 32° C., 5% CO2 for 5 days. After 5 days incubation, eGFP fluorescence intensity was measured at […] using a Spectramax i3X plate reader (VENDOR). Percent viral inhibition was calculated using the following equation: y=[[…]]×100 Where XQ is the fluorescence intensity measured in a well containing recombinant MPV-GFP1-infected, compound-treated cells and XP is the average fluorescence intensity measured in the wells containing untreated cells infected with recombinant virus. EC50 values were then calculated by non-linear regression using a four parameter curve logistic equation. The curve fit model employed was XLFit Dose Response One Site Model 200: y=(A+(B/(1+((x/C)^D)))) Where A is the minimum y value, B is the maximum y value, C is the log EC50 value, and D is the slope factor. The EC50 of each compound is listed in Table 2 and EC50 ranges are as follows: A<0.2 μM; B≥0.2 μM.

[2] = tested on: Human RSV-A (“Long” strain); test: RSV-A assay (CPE, ATPlite readout in Hep-2 cells); format: cell-based; conditions: Hep-2 cells, MOI 0.1, 5-day incubation, ATPlite, read-out: Human RSV-A (“Long” strain) EC50
Description: Hep-2 cells, (originally derived from tumors grown in irradiated-cortisonised weanling rats that had been injected with epidermoid carcinoma tissue from a person's larynx, but later found to be indistinguishable from HeLa cells by PCR DNA analysis), were used for the culturing of genotype A, “Long” strain RSV. Flasks were inoculated with RSV and viral stocks were collected once cytopathic effect (CPE) was greater than 90%. Viral stocks in 25% sucrose media were snap frozen using liquid nitrogen to increase viral stability. Viral stock titers were quantified by tissue culture infectious dose 50% (TCID50) using 8,000 cells per well and 3-fold viral dilutions across a 96-well plate, cultured for 4 days. Viral stock titers were also quantified by a plaque forming unit assay, as described elsewhere.
Following extensive parameter testing, the final assay is run as follows: Hep-2 cells are seeded into the inner 60 wells of a 96-well plate at 8,000 cells per well in a volume of 50 μL using Growth Media (DMEM without phenol red, 1% L-Glut, 1% Penn/Strep, 1% nonessential amino acids, 10% heat-inactivated FBS). 2-fold serial dilutions of control and test compounds are added to the wells in duplicate in a total volume of 25 μL. Viral stock is then added to the wells at a multiplicity of infection (MOI) of 0.1 in a volume of 25 μL, bringing the total volume of each well to 100 μL. The MOI is calculated using the PFU/mL, or TCID50 if unavailable. Each 96-well plate has a control column of 6 wells with cells and virus but no compound (negative control, max CPE), a column with cells but no compound or virus (positive control, minimum CPE), and a column with no cells or virus or compound (background plate/reagent control). The control wells with cells but no virus are given an additional […], of growth media containing an equal quantity of sucrose as those wells receiving the viral stock in order to keep consistent in media and volume conditions. The outer wells of the plate are filled with 125 μL of moat media (DMEM, 1% Penn/Strep) to act as a thermal and evaporative moat around the test wells. Following a 5-day incubation period, the plates are read using ATPlite (50 uL added per well), which quantifies the amount of ATP (a measure of cell health) present in each well. Assay plates are read using the Envision luminometer. […] EC50 ranges are as follows: A<0.2 μM; B≥0.2 μM.

[3] = human respiratory syncytial virus, 120 h

| SMILES | pEC50 ([1]; Vero C1008, 120 h) | pEC50 [2, 3] | pEC50 ([1]; Vero E6 cells, MOI 0.05, 5 days at 32° C., eGFP fluorescence) | pEC50 [2] | pEC50 ([2]; human respiratory syncytial virus, in Homo sapiens, 120 h) |
| --- | --- | --- | --- | --- | --- |
| N[C@@]1(C(F)(F)F)COc2c1cc([C@@](O)(CNC(=O)c1cc(OC3CC3)c3ncccc3c1)C1CC1)nc2-c1ccc(F)cc1 [Example 11, N—((S)-2-((R)-3-amino-7-(4-fluorophenyl)-3-(trifluoromethyl)-2,3-dihydrofuro[2,3-c]pyridin-5-yl)-2-cyclopropyl-2-hydroxyethyl)-8-cyclopropoxyquinoline-6-carboxamide] | < 6.70 | > 6.70 |  |  |  |
| COc1cc(C(=O)NC[C@](C)(O)c2cc3c(c(-c4ccc(F)cc4)n2)OC[C@@]3(N)C(F)(F)F)ccc1OC1CC1 [Example 7, N—((S)-2-((R)-3-amino-7-(4-fluorophenyl)-3-(trifluoromethyl)-2,3-dihydrofuro[2,3-c]pyridin-5-yl)-2-hydroxypropyl)-4-cyclopropoxy-3-methoxybenzamide] | > 6.70 | > 6.70 |  |  |  |
| COc1cc(C(=O)NC[C@](O)(c2cc3c(c(-c4ccc(F)c(Cl)c4)n2)OC[C@@]3(N)C(F)(F)F)C2CC2)ccc1OC1CC1 [Example 25, N—((S)-2-((R)-3-amino-7-(3-chloro-4-fluorophenyl)-3-(trifluoromethyl)-2,3-dihydrofuro[2,3-c]pyridin-5-yl)-2-cyclopropyl-2-hydroxyethyl)-4-cyclopropoxy-3-methoxybenzamide] | > 6.70 | > 6.70 |  |  |  |
| COc1cc(C(=O)NC[C@](O)(c2cc3c(c(-c4ccc(F)cc4)n2)OC[C@@]3(N)C(F)(F)F)C(F)(F)F)ccc1OC1CC1 [Example 1] | < 6.70 | > 6.70 |  |  |  |
| N[C@@]1(C(F)(F)F)COc2c1cc([C@@](O)(CNC(=O)c1cc(OC3CC3)c3ncccc3c1)C1CC1)nc2-c1ccc(F)c(Cl)c1 [Example 30, N—((S)-2-((R)-3-amino-7-(3-chloro-4-fluorophenyl)-3-(trifluoromethyl)-2,3-dihydrofuro[2,3-c]pyridin-5-yl)-2-cyclopropyl-2-hydroxyethyl)-8-cyclopropoxyquinoline-6-carboxamide] | < 6.70 | > 6.70 |  |  |  |
| C[C@](O)(CNC(=O)c1ccc(OC2CC2)c(OC2CC2)c1)c1cc2c(c(-c3ccc(F)c(Cl)c3)n1)OC[C@@]2(N)C(F)(F)F [Example 28, N—((S)-2-((R)-3-amino-7-(3-chloro-4-fluorophenyl)-3-(trifluoromethyl)-2,3-dihydrofuro[2,3-c]pyridin-5-yl)-2-hydroxypropyl)-3,4-dicyclopropoxybenzamide] | > 6.70 | > 6.70 |  |  |  |
| COc1cc(C(=O)NCC(C)c2cc3c(c(-c4ccc(F)c(F)c4)n2)OC[C@@]3(N)C(F)(F)F)ccc1OC1CC1 (stereo partly drawn) [Example 48] | < 6.70 | < 6.70 |  |  |  |
| COc1cc(C(=O)NC[C@H](O)c2cc3c(c(-c4ccc(F)cc4)n2)OC[C@@]3(N)C(F)(F)F)ccc1OC1CC1 [Example 47] | < 6.70 | < 6.70 |  |  |  |
| COc1cc(C(=O)NC[C@](C)(O)c2cc3c(c(-c4ccc(F)c(F)c4)n2)OC[C@@]3(N)C(F)(F)F)ccc1OC1CC1 [Example 22, N—((S)-2-((R)-3-amino-7-(3,4-difluorophenyl)-3-(trifluoromethyl)-2,3-dihydrofuro[2,3-c]pyridin-5-yl)-2-hydroxypropyl)-4-cyclopropoxy-3-methoxybenzamide] | > 6.70 | > 6.70 |  |  |  |
| COc1cc(C(=O)NC[C@](O)(c2cc3c(c(-c4ccc(F)cc4)n2)OC[C@@]3(N)C(F)(F)F)C2CC2)cc2cccnc12 [Example 10] | < 6.70 | > 6.70 |  |  |  |
| COc1cc(C(=O)NC[C@@](O)(CO)c2cc3c(c(-c4ccc(F)cc4)n2)OC[C@@]3(N)C(F)(F)F)ccc1OC1CC1 [Example 51, N—((S)-2-((R)-3-amino-7-(4-fluorophenyl)-3-(trifluoromethyl)-2,3-dihydrofuro[2,3-c]pyridin-5-yl)-2,3-dihydroxypropyl)-4-cyclopropoxy-3-methoxybenzamide] | < 6.70 | > 6.70 |  |  |  |
| COc1cc(C(=O)NC[C@@](O)(CF)c2cc3c(c(-c4ccc(F)cc4)n2)OC[C@@]3(N)C(F)(F)F)ccc1OC1CC1 [Example 8] |  |  | > 6.70 | > 6.70 |  |
| COc1cc(C(=O)NC[C@](O)(c2cc3c(c(-c4ccc(F)cc4)n2)OC[C@]3(N)C(F)(F)F)C(F)(F)F)ccc1OC1CC1 [Example 3, N—((S)-2-((S)-3-amino-7-(4-fluorophenyl)-3-(trifluoromethyl)-2,3-dihydrofuro[2,3-c]pyridin-5-yl)-3,3,3-trifluoro-2-hydroxypropyl)-4-cyclopropoxy-3-methoxybenzamide] | < 6.70 | > 6.70 |  |  |  |
| N[C@@]1(C(F)(F)F)COc2c1cc([C@@](O)(CNC(=O)c1ccc(OC3CC3)c(OC3CC3)c1)C1CC1)nc2-c1ccc(F)c(F)c1 [Example 27, N—((S)-2-((R)-3-amino-7-(3,4-difluorophenyl)-3-(trifluoromethyl)-2,3-dihydrofuro[2,3-c]pyridin-5-yl)-2-cyclopropyl-2-hydroxyethyl)-3,4-dicyclopropoxybenzamide] | > 6.70 | > 6.70 |  |  |  |
| N[C@@]1(C(F)(F)F)COc2c1cc([C@@](O)(CNC(=O)c1ccc(OC3CC3)c(OC3CC3)c1)C1CC1)nc2-c1ccc(F)c(Cl)c1 [Example 29] | < 6.70 |  |  |  | > 6.70 |
| COC[C@](O)(CNC(=O)c1ccc(OC2CC2)c(OC)c1)c1cc2c(c(-c3ccc(F)cc3)n1)OC[C@@]2(N)C(F)(F)F [Example 49, N—((S)-2-((R)-3-amino-7-(4-fluorophenyl)-3-(trifluoromethyl)-2,3-dihydrofuro[2,3-c]pyridin-5-yl)-2-hydroxy-3-methoxypropyl)-4-cyclopropoxy-3-methoxybenzamide] | < 6.70 | > 6.70 |  |  |  |
| C[C@](O)(CNC(=O)c1ccc(OC2CC2)c(OC2CC2)c1)c1cc2c(c(-c3ccc(F)c(F)c3)n1)OC[C@@]2(N)C(F)(F)F [Example 26, N—((S)-2-((R)-3-amino-7-(3,4-difluorophenyl)-3-(trifluoromethyl)-2,3-dihydrofuro[2,3-c]pyridin-5-yl)-2-hydroxypropyl)-3,4-dicyclopropoxybenzamide] | > 6.70 | > 6.70 |  |  |  |
| C[C@](O)(CNC(=O)c1ccc(OC2CC2)c(OC2CC2)c1)c1cc2c(c(-c3ccc(F)cc3)n1)OC[C@@]2(N)C(F)(F)F [Example 20, N—((S)-2-((R)-3-amino-7-(4-fluorophenyl)-3-(trifluoromethyl)-2,3-dihydrofuro[2,3-c]pyridin-5-yl)-2-hydroxypropyl)-3,4-dicyclopropoxybenzamide] | > 6.70 | > 6.70 |  |  |  |
